These results are taken from PubChem BioAssay (NCI).

This assay relates to MDA-MB-468 breast. Kind of assay: NCI-60 cell line screen, 48 h.

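Dose response: 5 concentrations. Exposure: 48 h. Format: 96-well plates. Endpoint: linear interpolation; highest concentration if not reached. GI50 is the concentration that inhibits growth by half. TGI is the concentration that stops growth completely.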

Take `Fc1ccc(-c2cc3nc(C(Cl)Cl)nc(-c4ccc(Cl)cc4)n3n2)cc1`: the GI50 was 1.73 µM and the TGI is 4.12 µM. In the same order, the values of `N#CCn1c(=O)c(Oc2ccc(F)cc2F)cc2cnc(NC3CCOCC3)nc21` are above 18.9 µM and above 25 µM. The like results for `O=C1NC(=NCc2ccccc2Cl)S/C1=C\c1ccc2ncccc2c1` were, in that order, 3.61 µM and above 25 µM.

For `O=C1CC(c2c[nH]c3ccc(F)cc23)C(=O)N1` (stereo unspecified), the GI50 was above 100 µM and the TGI is above 100 µM. Consider `COc1cc2cc(Oc3ccc(NC(=O)Nc4cc(C(F)(F)F)cc(C(F)(F)F)c4)cc3)c(C)nc2cc1OCCN1CCOCC1`, for which the GI50 is 1.22 µM and the TGI turned out to be 3.76 µM. In the same order, the values of `O=C1NC(=S)S/C1=C\c1cn(-c2ccccc2)nc1-c1ccccc1` are 6.83 µM and 39.9 µM. In the case of `COc1cc(/C=C2\C(=O)N(Cc3ccc(Cl)cc3)c3ccccc32)cc(OC)c1OC`, the GI50 is 2.66 µM and the TGI turned out to be 8.06 µM.

Regarding `CO[C@H]1C[C@@H]2CC[C@@H](C)[C@@](O)(O2)C(=O)C(=O)N2CCCC[C@H]2C(=O)O[C@H]([C@H](C)C[C@@H]2CC[C@@H](OC(=O)C(C)(CO)CO)[C@H](OC)C2)CC(=O)[C@H](C)/C=C(\C)[C@@H](O)[C@@H](OC)C(=O)[C@H](C)C[C@H](C)\C=C/C=C/C=C/1C`, the GI50 is 0.00189 µM and the TGI was above 10 µM.

In the case of `COc1ccc(C(O)c2cc3c(N)c(C(=O)Nc4ccc(Cl)cc4)sc3nc2C)cc1` (stereo unspecified), the GI50 is 1.94 µM and the TGI was 8.87 µM. In the same order, the values of `COc1cc(-c2cc(/C=C/C(=O)c3ccc(F)c(F)c3)[nH]n2)cc(OC)c1OC` are 2.27 µM and 9.47 µM. In the same order, the values of `COc1cnc2c(c1)C(=O)c1c-2n(CCCNC2=NCCS2)c(=O)c2cc(F)ccc12` are 0.19 µM and 2.02 µM.

Turning to `C#Cc1cccc(Nc2ncnc3cc(NC(=O)CCl)ccc23)c1`, the GI50 is 0.716 µM and the TGI was found to be 3.16 µM. In the same order, the values of `COc1cc(/C=C/C(=O)c2cccc(-n3cc(-c4cc(OC)c(OC)c(OC)c4)[nH]c3=O)c2)cc(OC)c1OC` are 1.57 µM and 3.25 µM. In the same order, the values of `COc1ccc2c(c1)OC(N)=C(C#N)C2c1cc(OC)c(OC)c(OC)c1` (stereo unspecified) are 0.0239 µM and 0.0688 µM. For the compound `Oc1ccc(Cl)cc1C(c1cc(Cl)ccc1O)C(Cl)(Cl)Cl`, the GI50 was 2.58 µM and the TGI turned out to be 8.11 µM.

As to `O=C1Nc2ccc(Br)cc2C12CC(c1ccccc1)=NN2` (stereo unspecified), the GI50 is 3.04 µM and the TGI amounted to 41.8 µM. The like results for `C=C1C(=O)O[C@H]2[C@H]1CC/C(COC(=O)c1cc(OC)c(OC)c(OC)c1)=C\CC[C@@]1(C)O[C@@H]21` were, in that order, 0.344 µM and 2.02 µM. The like results for `c1ccc(-c2oc(-c3ccccc3)c(CN3CCCCC3)c2CN2CCCCC2)cc1` were, in that order, 1.45 µM and 3.98 µM. The like results for `O=C1Nc2ccc(Cl)cc2/C1=C\c1c(-c2ccc(Cl)cc2)nc2sc(C3CC3)nn12` were, in that order, 6.68 µM and 21.2 µM.

Take `CCOCC1(COCC)CCC(c2[nH]ncc2CN(C)CCNC)CC1`: the GI50 is 46.6 µM and the TGI is above 100 µM. As to `CN(C)c1ccc(/C=C\c2ccnc3ccccc23)cc1`, the GI50 is 0.233 µM and the TGI came out at 0.564 µM. The like results for `NS(=O)(=O)c1ccc(Nc2cc(-c3ccc(O)c(F)c3)[nH]n2)cc1` were, in that order, 10.5 µM and above 25 µM. The like results for `CN=C(N)c1ccc(N=C(N)c2ccc(-c3ccc(C(N)=Nc4ccc(C(N)=NC)cc4)cc3)cc2)cc1` were, in that order, 74.4 µM and above 100 µM.

For `CC(C)=CCc1cc2c(cc1O)C1=C(C(=O)C3=C(C1=O)S(=O)(=O)CCN3)C(C=C(C)C)O2` (stereo unspecified), the GI50 was 0.54 µM and the TGI came to 2.59 µM.

For `O=C(Nc1ccc(Oc2ccc3nc(NC(=O)c4ccco4)[nH]c3c2)cc1)Nc1cc(C(F)(F)F)ccc1F`, the GI50 is 1.37 µM and the TGI was 11.5 µM. With `CCOC(=O)[C@@H](C)C[C@H](Cc1ccccc1)NC(=O)c1csc([C@@H](C[C@H](C(C)C)N(C)C(=O)[C@@H](NC(=O)[C@H]2CCCCN2C)C(C)(C)CC)OC(C)=O)n1`, the GI50 is below 0.00167 µM. For `COc1ccc2nc3cc(Cl)ccc3c(NCCCNCCO)c2c1`, the GI50 is 0.454 µM and the TGI is 1.89 µM. The like results for `CCN1CCN(c2nc(C)cc(N(CCCNc3ccnc4cc(Cl)ccc34)Cc3ccc4c(c3)OCO4)n2)CC1` were, in that order, 1.92 µM and 4.93 µM. The like results for `CSC1=NC(=Nc2c(C)cccc2C)C2(CCC(C(C)(C)C)CC2)N1c1ccc(Cl)cc1` (stereo unspecified) were, in that order, 4.83 µM and above 100 µM.

As to `NCCN1CCN(c2nc(-c3ccccc3)nc3nc(-c4ccccc4)oc23)CC1`, the GI50 is 1.63 µM and the TGI is 3.2 µM. The like results for `O=C1/C(=C/c2ccc(Cl)c(Cl)c2)CN(C(=O)C(Cl)Cl)C/C1=C\c1ccc(Cl)c(Cl)c1` were, in that order, 0.177 µM and 0.398 µM. The like results for `O=C(Nc1ccc(Oc2ccc(F)cc2)cc1)[C@@H]1C[C@@H](Cc2ccc(F)cc2)CN1C(=O)Cn1ccnn1` were, in that order, 4.5 µM and 29 µM. The like results for `COC1(CC[C@@H](C)COC2OC(CO)C(O)C(O)C2O)O[C@H]2C[C@H]3[C@@H]4CC=C5C[C@@H](OC6OC(CO)C(OC7OC(C)C(O)C(O)C7O)C(O)C6OC6OC(C)C(O)C(O)C6O)CC[C@]5(C)[C@H]4CC[C@]3(C)[C@H]2[C@@H]1C` (stereo partly specified) were, in that order, 1.38 µM and 3.01 µM. Take `CC1CC2C3CCC4=CC(=O)C=CC4(C)C3(F)C(O)CC2(C)C1(O)C(=O)COP(=O)(O)O` (stereo unspecified): the GI50 was above 500 µM and the TGI is above 500 µM. As for `Clc1nccc2c(-c3csc(-c4c[nH]c5ccc(Br)cc45)n3)c[nH]c12`, the GI50 was 1.18 µM and the TGI was 3.81 µM.

Take `COc1cc(CNCCCCCCN2C(=O)c3cccc4cccc(c34)C2=O)ccc1O`: the GI50 was 2.78 µM and the TGI was determined as 9.33 µM. In the same order, the values of `O=C1NC(=NCCc2ccc(F)cc2)S/C1=C\c1ccc2ncccc2c1` are above 20.9 µM and above 25 µM.

As to `c1cc(N[C@@H]2CCNC2)nc(-c2cnc3ccc(-c4cn[nH]c4)cn23)c1`, the GI50 is 0.957 µM and the TGI is 2.52 µM. In the same order, the values of `CC(=O)Nc1ccc(C(=O)CCl)cc1` are 1.81 µM and 4.52 µM. The like results for `CN1CCN(CC(=O)N(C)c2ccc(N=C(c3ccccc3)c3c(O)[nH]c4ccc(C#N)cc34)cc2)CC1` were, in that order, 10.7 µM and 24.1 µM.

As to `CC(C)(C)c1cc(C(=O)Nc2ccccc2C(=O)NCCN)cc(C(C)(C)C)c1`, the GI50 is 2.01 µM and the TGI worked out at 3.59 µM. With `COc1ccc(-c2cc(-c3ccc(Nc4nc(Nc5ccccc5)nc(Nc5ccc(Cl)cc5)n4)cc3)nc(N)n2)cc1`, the GI50 was 10.2 µM and the TGI is 34.2 µM. The like results for `CCCCN(CCCC)C(=O)[C@H](CC)[C@@H]1CC[C@@H](C)[C@@H]([C@H](C)[C@@H](O)[C@@H](C)C(=O)[C@H](CC)C2O[C@]3(C=C[C@@H](O)[C@]4(CC[C@@](C)([C@H]5CC[C@](O)(CC)[C@H](C)O5)O4)O3)[C@H](C)C[C@@H]2C)O1` (stereo partly specified) were, in that order, 1.47 µM and 3.89 µM. In the same order, the values of `COc1cc2c(c(OC)c1OC)-c1ccc(NN(C(=O)c3ccccc3)C(=O)c3ccccc3)c(=O)cc1[C@@H](NC(C)=O)CC2` (tested in a mixture with another compound) are 2.08 µM and 6.71 µM. The like results for `COc1cc2oc(-c3cccc(C(=O)Nc4ccc(Cl)cc4)c3)cc(=O)c2c(OC)c1OC` were, in that order, 3.64 µM and 85.7 µM.

In the case of `COc1cc2c(c(OC)c1OC)-c1ccc(SC)c(=O)cc1[C@@H](N)CC2`, the GI50 is 0.0786 µM and the TGI is above 100 µM.
